According to patent US12285392B2, “Method for modulating metabolism” (Brightseed, Inc., priority 2018, dated 2025):

Key:
HNF4α [1] = molecular target: T1, HNF4α (Homo sapiens, UniProt P41235); test: Insulin promoter activity assay in T6PNE cells (HNF4α activity); type: cell-based; conditions: for HNF4α modulation in screening: screening in the HNF4α assay
T1 construct: endogenous in cells; host or cells: T6PNE cells
T1 sequence (P41235 1-474): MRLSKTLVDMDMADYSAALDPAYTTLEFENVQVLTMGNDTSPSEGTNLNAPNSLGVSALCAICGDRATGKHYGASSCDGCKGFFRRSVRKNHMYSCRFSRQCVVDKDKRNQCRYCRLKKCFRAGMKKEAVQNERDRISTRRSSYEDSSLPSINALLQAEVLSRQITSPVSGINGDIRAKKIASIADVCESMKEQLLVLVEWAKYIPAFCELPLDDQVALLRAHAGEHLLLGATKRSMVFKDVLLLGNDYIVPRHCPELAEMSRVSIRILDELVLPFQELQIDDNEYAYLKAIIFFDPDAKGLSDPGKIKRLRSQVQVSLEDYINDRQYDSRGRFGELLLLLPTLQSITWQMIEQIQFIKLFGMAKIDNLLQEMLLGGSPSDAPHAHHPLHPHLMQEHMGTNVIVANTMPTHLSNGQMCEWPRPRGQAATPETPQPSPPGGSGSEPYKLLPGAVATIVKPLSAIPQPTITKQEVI
Protocol: Insulin Promoter Activity. T6PNE cells (Kiselyuk, et al. (2012) Chem Biol. 19(7):806-818; Kiselyuk, et al. (2010) J. Biomol. Screen 15(6):663-70) are seeded at 2000 cells per well in 384-well tissue culture plates in the presence of 1 μM tamoxifen and 0.03 mM palmitate. After a 24-hour incubation, a compound or extract of the invention is added to the cells. Forty-eight hours after compound or extract addition, cells are fixed in 4% paraformaldehyde and stained with DAPI. Blue (DAPI) and green (human insulin promoter driving GFP) channels are imaged.
Inhibition of HNF4α GFP Expression. Using the insulin promoter assay described herein, activity of HNF4α was assessed in the presence of BI-6015 (0, 2.5, 5 μM), a known antagonist of HNF4α (Kiselyuk, et al. (2012) Chem. Biol. 19(7):806-818), in combination with N-trans-caffeoyltyramine (0, 5, 10, 20 μM).
Given the role of HNF4α in maintaining a heal thy metabolism in humans, test compounds were screened for activity as HNF4α agonists (either direct or indirect effects). Using a known insulin promoter-reporter assay, Kiselyuk and colleagues (2010. J. Biomol. Screen 15(6):663-70), screened a library of compounds for activity to promote insulin activation. […] The OTC promoter is known to be responsive to HNF4α in transient transfection assays (Inoue, et al. (2002) J. Biol. Chem. 277:25257-65).

HNF4α mRNA = HNF4α mRNA levels by quantitative PCR; type: cell-based; conditions: FIG. 3
Protocol: (§1) Expression of Insulin and HNF4α. RNA was purified using a RNEASY® chromatographic separation and isolation kits (Qiagen), and converted to cDNA using the gScript™ cDNA SuperMix (Quanta Biosciences). Q-PCR was conducted with cDNA corresponding to 2 μg of RNA using an Opticon Real-Time System (MJ Research) and QPCR SuperMix (BioPioneer). See All mRNA values were normalized to 18S rRNA values and are expressed as fold changes over vehicle-treated control.

insulin mRNA = test: Insulin mRNA levels by quantitative PCR; type: cell-based; conditions: FIG. 2
Protocol: as §1

estrogenic activity = test: Counter-screen for estrogenic activity (E47MER luciferase reporter in HeLa cells); type: cell-based, human; conditions: FIG. 5
Protocol: Counter-Screen for Estrogenic Activity. Estrogenic activity was monitored by co-transfection of a reporter plasmid containing a multimerized E-box 5′ of a minimal promoter fused to the Firefly luciferase gene (4RTK-luc) with wild-type E47 or E47MER (Kiselyuk, et al. (2010) J. Biomol. Screen 15(6):663-70). HeLa cells were transfected using polyethylenimine, 0.2 μg 4RTK-Luc plasmid and either 0.3 μg of human E47, E47MER or pMSCVhph vector in 50 μl of serum-free Dulbecco's modification of Eagle medium per well. Transfections included Renilla luciferase (pRL-TK) plasmid as a control for transfection efficacy. Transfection conditions were as described in the PPRE-Luc reporter assay of Kiselyuk, et al. ((2010) J. Biomol. Screen 15(6):663-70). Sixteen hours after transfection, culture media were changed and maintained for 48 hours with tamoxifen and/or compound or vehicle (DMSO). Cells were then lysed and assayed for luciferase activity using the Promega DUAL-LUCIFERASE® reporter assay kit (Promega Corp., Madison, WI), and luminescence was measured using the Veritas™ Microplate Luminometer (Turner Biosystems, Sunnyvale, CA). Data were normalized to Renilla luciferase (pRL-TK) and expressed as fold-change over vehicle alone.

T6PNE cells = test: Lipid clearance in T6PNE cells (steatosis assay); type: cell-based; conditions: 10 μM, 0.25 mM palmitate
Protocol: T6PNE cells were pretreated for 1 day with 0.06 mM, 0.12 mM or 0.25 mM palmitate at which time 15 μM N-trans-caffeoyltyramine or control (DMSO) was added. Cells were harvested on day 3, 6 and 8 and subjected to staining with Nile Red and Oil Red O. Results are expressed as fold change in Nile Red staining: +palmitate/10% FBS medium (no palmitate)
(§2) Lipid Clearance in HepG2 and T6PNE Cells (Steatosis Assay). The steatosis assay was carried out as described (Kiselyuk, et al. (2012) Chem. Biol. 19(7):806-818) with the exception of the drug concentration, which was 20 μM for N-trans-caffeoyltyramine with 0.25 mM palmitate in HepG2 cell lines, and 10 μM of either N-trans-caffeoyltyramine, N-trans-caffeoyltyramine, or pcoumaroyltyramine, with 0.25 mM palmitate in T6PNE cell lines. Steatosis was assessed using the Oil Red 0 Method for Fats kits (Poly Scientific; Warrington, PA), per manufacturer's guidelines. Briefly, frozen tissue slides or fixed cells were incubated in neat propylene glycol for 2 minutes and Oil Red 0 solution for 15 hours for slides or 1 hour for fixed cells, differentiated in 85% propylene glycol solution for 1 minute, washed twice with distilled water and stained in Hematoxylin of 10 seconds. Slides were mounted with glycerin jelly mounting medium.

[2] = Bioavailability determination in mice; type: in vivo; conditions: mouse, whole blood, 30 mg/kg; male C57BL/6 mice
Protocol: Bioavailability Determinations.
An 8 μL aliquot of blood was used for analysis.

pH stability assessment = type: physicochemical; conditions: pH 2, 7.4, 8.5 and 10, 37° C., 0.5 and 72 hours
Protocol: pH Stability Assessment. Individual stock solutions were prepared in DMSO at concentrations of 10 mg/mL. Four different buffer solutions were prepared to achieve solutions with a pH of 2, 7.4, 8.5 and 10. For each pH assay, 5 μL of stock solution was added to 245 μL of buffered solution to a 2 mL tube, vortexed and incubated in a 37° C. water bath. At each timepoint, 50 μL aliquots were taken, neutralized and analyzed via HPLC analysis using a DAD detector at 280 nm. The fold change of the peak area at 280 nm was analyzed for the initial and final timepoint, 0.5 and 72 hours, respectively.

HepG2 cells = test: Lipid clearance in HepG2 cells (steatosis assay, Oil Red O); type: cell-based; conditions: HepG2 liver cells, 20 μM
Protocol: as §2

HNF4α [3] = molecular target: T1, HNF4α; conditions: cited from earlier work
HNF4α [4] = molecular target: T1, HNF4α; conditions: Kiselyuk et al.; cited from earlier work

SMILES: Cc1ccc([N+](=O)[O-])cc1S(=O)(=O)n1c(C)nc2ccccc21 [BI-6015, reference compound]
- Effect on N-trans-caffeoyltyramine-mediated increases in insulin expression (HNF4α [1]; insulin promoter assay, BI-6015 0, 2.5, 5 μM, FIG. 4): inhibited

SMILES: O=C(/C=C\c1ccc(O)c(O)c1)NCCc1ccc(O)cc1 [N-cis-caffeoyltyramine]
- HNF4α modulation in screening (HNF4α [1]): able to act as HNF4α modulators

SMILES: O=C(/C=C/c1ccc(O)cc1)NCCc1ccc(O)c(O)c1 [N-coumaroyldopamine]
- HNF4α gene expression (HNF4α mRNA): inactive
- Insulin gene expression (insulin mRNA): inactive

SMILES: COc1cc(/C=C/C(=O)NCCc2ccc(O)cc2)ccc1O [N-trans-feruloyltyramine]
- Estrogenic activity (estrogenic activity): did not exhibit estrogenic activity
- Fat accumulation (T6PNE cells): inhibition of fat accumulation
- bioavailability [2]: ~7%
- pH Stability (pH stability assessment): Stable
- HNF4α modulation in screening (HNF4α [1]): able to act as HNF4α modulators
- HNF4α gene expression (HNF4α mRNA): upregulated
- Clearing of fats (Oil Red O staining) (HepG2 cells): capable of clearing harmful fats from the liver
- Accumulation of fats (HepG2 cells; 0.25 mM palmitate): inhibited accumulation of fats
- Insulin gene expression (insulin mRNA): upregulated

SMILES: COc1cc(/C=C/C(=O)NCC(O)c2ccc(O)cc2)ccc1O (stereo not shown) [N-transferuloyloctopamine]
- HNF4α gene expression (HNF4α mRNA): inactive
- Insulin gene expression (insulin mRNA): inactive

SMILES: COc1cc(/C=C\C(=O)NCCc2ccc(O)cc2)ccc1O [cis-feruloyltyramine, reference compound]
- HNF4α gene expression (HNF4α mRNA): inactive
- Insulin gene expression (insulin mRNA): inactive

SMILES: CCN(CCCCc1ccccc1)CCc1ccccc1 [compound 1]
- HNF4α agonistic activity in OTC promoter assay (HNF4α [3]): possess HNF4α agonistic activity
- Insulin activation in insulin promoter-reporter screen (HNF4α [4]): insulin activator

SMILES: O=C(/C=C/c1ccc(O)cc1)NCC(O)c1ccc(O)cc1 (stereo not shown) [p-coumaroyloctopamine]
- HNF4α gene expression (HNF4α mRNA): inactive
- Insulin gene expression (insulin mRNA): inactive

SMILES: O=C(/C=C/c1ccc(O)cc1)NCCc1ccc(O)cc1 [p-coumaroyltyramine]
- pH Stability (pH stability assessment): Acid Stable
